Patent publication US10597696B2, “Detection of Niemann-Pick disease comprising detection of lysozyme and cathepsins” (UNIVERSITY OF NOTRE DAME DU LAC, priority 2013, dated 2020)

Legend:
[1] = system: Npc1^nih Npc1^−/− mice; test: Plasma lysozyme activity in HPβCD-treated Npc1^nih mice; type: in vivo, mouse
Description: Lysozyme activity in plasma was measured using fluorescence based lysozyme assay kit (EnzCheck, Life Technologies, Carlsbad, Calif., USA) as describer earlier (19). Plasma corresponding to 25 μg protein from female and male Npc1^nih mice was used in a 100 μl reaction volume. The reaction was carried out at 37° C. for 24 h. Fluorescence was read using excitation/emission of 494/518 nm in a multiwell plate reader spectramax M2 (Molecular devices, CA, USA). The values obtained were normalized by dividing the numbers by the mean value of lysozyme obtained among untreated Npc1^+/− mice. Purified chicken egg white lysozyme was used as a positive control. Starting at P21 and once a week thereafter, Npc1^nih and Npc1^nmf164 mice were injected i.p with 20% 2-hydroxypropyl-beta-cyclodextrin (HPβCD, 4000 mg/Kg) prepared in 0.2% DMSO and 0.9% saline. Control mice received 0.2% DMSO in 0.9% saline. Blood was collected either via cheek bleed or terminal heart bleed from mice in EDTA tubes (BD Biosciences, San Jose, Calif., USA). Plasma was separated by centrifugation at 2500 rpm for 15 min and stored at −70° C. until used.

[2] = system: Npc1^nih Npc1^−/− mouse brain; test: qPCR of cathepsins and inflammatory markers in brain after HPβCD; type: in vivo
Text: In mice, formalin fixed paraffin embedded tissue was sectioned (4-5 μm) and total RNA was isolated using RNeasy FFPE kit (Qiagen, Germantown, Md., USA) which included treatment with DNAse. Frozen human liver and cerebellum from 4 NPC patients and 4 age-, gender- and ethnicity-matched controls were obtained from the NICHD Brain and Tissue Bank for Developmental Disorders (University of Maryland, Baltimore, Md., USA), as approved by the Institutional Review Board (IRB), of the University of Notre Dame, Ind., USA (FWA 00002462). Total RNA was isolated using RNeasy kit (Qiagen, Germantown, Md., USA). Eluted RNA was further digested with RNase free DNaseI and re-purified using RNeasy column. The quality of RNA was checked using Bioanalyzer chip (Agilent Technologies, Santa Clara, Calif., USA) and quantity was determined using Nanodrop 2000 (Thermo Fisher Scientific, Waltham, Mass., USA). Quantitative PCR (qPCR) was performed using Power SYBR Green RNA-to-CT 1-Step Kit and an ABI Prism 7500 Fast real-time PCR system (Applied Biosystems, Grand Island, USA). Reaction was set in 20 μl using 100 nM primers and 5-100 ng total RNA as template. The thermal cycling parameters were as follows: step 1, 48° C. for 30 min; step 2, 95° C. for 10 min; step 3, 95° C. for 15 sec ° C.; step 4, 60° C. for 15 sec. Step 3-4 was repeated for 40 cycles followed by melt curve analysis. Specific amplification was validated by analysis of template titration, melt curves and agarose gel electrophoresis. In both mouse and human tissues, the mRNA levels were normalized to the housekeeping gene, Gapdh (Glyceraldehyde 3-phosphate dehydrogenase). Fold change was calculated by relative standard curve method after correcting PCR efficiency. In mice, the fold change in expression levels of different genes in Npc1^−/− was calculated relative to average levels of expression in Npc1^+/− mice. In human tissues, fold change in transcript expression in NPC liver and cerebellum was expressed relative to average expression in age-matched controls. Starting at P21 and once a week thereafter, Npc1^nih and Npc1^nmf164 mice were injected i.p with 20% 2-hydroxypropyl-beta-cyclodextrin (HPβCD, 4000 mg/Kg) prepared in 0.2% DMSO and 0.9% saline. Control mice received 0.2% DMSO in 0.9% saline. Blood was collected either via cheek bleed or terminal heart bleed from mice in EDTA tubes (BD Biosciences, San Jose, Calif., USA). Plasma was separated by centrifugation at 2500 rpm for 15 min and stored at −70° C. until used.

[3] = system: Npc1^nih mice; test: Onset of symptoms and survival of HPβCD-treated Npc1^nih mice; type: in vivo, mouse; conditions: weekly 4000 mg/Kg from P21
Description: Starting at P21 and once a week thereafter, Npc1^nih and Npc1^nmf164 mice were injected i.p with 20% 2-hydroxypropyl-beta-cyclodextrin (HPβCD, 4000 mg/Kg) prepared in 0.2% DMSO and 0.9% saline. Control mice received 0.2% DMSO in 0.9% saline. Blood was collected either via cheek bleed or terminal heart bleed from mice in EDTA tubes (BD Biosciences, San Jose, Calif., USA). Plasma was separated by centrifugation at 2500 rpm for 15 min and stored at −70° C. until used.
To examine time points of advanced disease, we returned to the shorter, Npc1^nih model. This model typically manifests phenotypic symptoms (weight loss, gait, tremor etc.) from ˜50-55 days and survives up to ˜80-84 days (FIG. 18A). […] We therefore treated Npc1^−/− mice with HPβCD or vehicle control (0.2% DMSO in 0.9% saline) with once a week drug injections (4000 mg/Kg) starting at age P21. […] As reported earlier, the plasma lysozyme activity of vehicle treated Npc1^−/− mice was elevated on average 2-fold in early symptomatic (50-60 days) animals (FIG. 18B) and remained elevated at the late symptomatic stage (70 days) compared to age matched controls (FIG. 18C).

[4] = Npc1^nih Npc1^−/−, weekly HPβCD, at 80+ days

## CC(O)COC[C@H]1O[C@@H]2O[C@H]3[C@H](O)[C@@H](O)[C@@H](O[C@H]4[C@H](O)[C@@H](O)[C@@H](O[C@H]5[C@H](O)[C@@H](O)[C@@H](O[C@H]6[C@H](O)[C@@H](O)[C@@H](O[C@H]7[C@H](O)[C@@H](O)[C@@H](O[C@H]8[C@H](O)[C@@H](O)[C@@H](O[C@H]1[C@H](O)[C@H]2O)O[C@@H]8COCC(C)O)O[C@@H]7COCC(C)O)O[C@@H]6COCC(C)O)O[C@@H]5COCC(C)O)O[C@@H]4COCC(C)O)O[C@@H]3COCC(C)O (stereo partly drawn) [HPβCD, 2-hydroxypropyl-beta-cyclodextrin]
[1]; NPC mice, composite quartile analysis (FIG. 20B)
  decrease of plasma lysozyme: 50%
[1]; Npc1^nih Npc1^−/−, weekly 4000 mg/Kg from P21, at 50-60 days
  plasma lysozyme activity: reduced plasma lysozyme activity levels seen in wild type mice
[1]; [4]
  plasma lysozyme compared to mock treated animals: reduction
  plasma lysozyme increase compared to normal animals: 1.5 fold
[2]; HPβCD-treated Npc1^−/−, late stages, untreated ~81-fold
  Lyz1 expression in brain, fold elevation: ~28 fold
[2]; HPβCD-treated Npc1^−/−, untreated ~9-fold
  Gfap transcript in brain: slightly reduced
[2]; HPβCD-treated Npc1^−/−, untreated ~24-fold
  Cd68 transcript in brain relative to Npc1^+/− mice: ~6 fold
[2]; HPβCD-treated Npc1^−/−, untreated ~44-fold
  Mip-1α transcripts in brain, fold increase: ~27 fold
[2]; NPC mouse brain, qPCR
  transcripts of neuron specific 24-hydroxylase: no effect
[2]; Npc1^−/− mice, qPCR
  expression of Ctsb in brain: returned to normal levels
  expression of Ctsd in brain: partial reduction
  expression of Ctss in brain: partial reduction
[3]; untreated up to ~80-84 days
  survival: 105 to 112 days
[3]; untreated ~49-56 days
  onset of symptoms: 70 to 80 days
